Test results: BindingDB's records for PubMed 2385234 (Universit&Eacute, 1990)
“And” between values parts separate entries of the source, which are not always exact repeats. Equal entries are not always repeated.

Legend:
[1] = target: T1, Muscarinic acetylcholine receptor M4 (Mus musculus, UniProt P32211)
T1 sequence (P32211 whole entry): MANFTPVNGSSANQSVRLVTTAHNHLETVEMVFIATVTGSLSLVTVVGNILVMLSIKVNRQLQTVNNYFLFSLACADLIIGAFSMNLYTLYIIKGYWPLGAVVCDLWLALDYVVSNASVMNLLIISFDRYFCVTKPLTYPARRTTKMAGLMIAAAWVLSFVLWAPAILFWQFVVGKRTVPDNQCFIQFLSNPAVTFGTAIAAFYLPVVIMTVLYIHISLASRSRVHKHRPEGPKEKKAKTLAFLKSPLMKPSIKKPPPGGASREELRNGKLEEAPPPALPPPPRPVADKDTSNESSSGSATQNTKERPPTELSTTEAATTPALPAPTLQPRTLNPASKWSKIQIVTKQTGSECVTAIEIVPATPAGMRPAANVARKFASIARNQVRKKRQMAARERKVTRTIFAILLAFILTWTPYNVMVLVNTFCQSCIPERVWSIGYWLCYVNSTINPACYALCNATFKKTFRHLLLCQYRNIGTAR

[2] = target: T2, Muscarinic acetylcholine receptor M4 (Rattus norvegicus, UniProt P08485)
T2 sequence (P08485 whole entry): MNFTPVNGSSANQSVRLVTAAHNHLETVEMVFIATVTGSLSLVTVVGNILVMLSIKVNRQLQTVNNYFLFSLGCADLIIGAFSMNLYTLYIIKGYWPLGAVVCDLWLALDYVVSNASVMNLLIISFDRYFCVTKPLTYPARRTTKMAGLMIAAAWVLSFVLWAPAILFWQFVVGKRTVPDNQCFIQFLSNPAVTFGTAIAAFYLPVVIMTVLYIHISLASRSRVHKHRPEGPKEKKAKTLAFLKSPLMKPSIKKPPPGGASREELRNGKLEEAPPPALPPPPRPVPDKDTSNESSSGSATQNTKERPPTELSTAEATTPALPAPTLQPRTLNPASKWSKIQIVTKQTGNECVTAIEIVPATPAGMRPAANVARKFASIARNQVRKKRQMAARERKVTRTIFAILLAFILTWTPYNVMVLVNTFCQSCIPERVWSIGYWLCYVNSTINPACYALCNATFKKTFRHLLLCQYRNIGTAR

[3] = target: Muscarinic acetylcholine receptor M3 (Rattus norvegicus, UniProt P08483)
Muscarinic acetylcholine receptor M3, sequence (P08483 whole entry): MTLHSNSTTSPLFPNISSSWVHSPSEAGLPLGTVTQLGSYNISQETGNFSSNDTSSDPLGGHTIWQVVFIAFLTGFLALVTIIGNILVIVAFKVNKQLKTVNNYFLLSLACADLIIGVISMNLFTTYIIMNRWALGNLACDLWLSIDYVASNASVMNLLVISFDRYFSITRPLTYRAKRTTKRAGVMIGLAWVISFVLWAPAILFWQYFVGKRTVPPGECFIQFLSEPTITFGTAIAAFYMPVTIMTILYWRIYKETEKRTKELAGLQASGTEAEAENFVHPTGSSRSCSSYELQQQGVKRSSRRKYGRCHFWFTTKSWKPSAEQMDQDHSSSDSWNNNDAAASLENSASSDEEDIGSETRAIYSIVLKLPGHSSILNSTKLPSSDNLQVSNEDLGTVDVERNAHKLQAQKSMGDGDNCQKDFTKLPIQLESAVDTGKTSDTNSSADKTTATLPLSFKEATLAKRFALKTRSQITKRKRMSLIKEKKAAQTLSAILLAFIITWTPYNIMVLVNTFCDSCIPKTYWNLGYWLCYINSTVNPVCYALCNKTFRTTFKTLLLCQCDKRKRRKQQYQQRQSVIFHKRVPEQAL

[4] = target: T3, Muscarinic acetylcholine receptor M2 (Rattus norvegicus, UniProt P10980)
T3 sequence (P10980 whole entry): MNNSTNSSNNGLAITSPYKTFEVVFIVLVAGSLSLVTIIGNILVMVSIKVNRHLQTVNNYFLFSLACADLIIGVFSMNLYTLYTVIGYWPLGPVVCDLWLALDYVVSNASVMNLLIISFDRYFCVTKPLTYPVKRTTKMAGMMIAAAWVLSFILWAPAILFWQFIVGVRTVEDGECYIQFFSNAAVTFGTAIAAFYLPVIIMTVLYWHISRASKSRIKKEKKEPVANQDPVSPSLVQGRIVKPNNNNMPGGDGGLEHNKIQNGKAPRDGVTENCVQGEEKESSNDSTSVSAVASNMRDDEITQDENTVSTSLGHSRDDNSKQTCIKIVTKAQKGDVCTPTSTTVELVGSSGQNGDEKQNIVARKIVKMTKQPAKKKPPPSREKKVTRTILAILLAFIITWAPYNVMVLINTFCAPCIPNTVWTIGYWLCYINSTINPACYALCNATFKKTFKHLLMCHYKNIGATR

SMILES | Ki [1] [µM] | Ki [2] | Ki [3] [µM] | Ki [4] [µM]
C[N+]1(C)CCC(OC(=O)C(c2ccccc2)c2ccccc2)CC1 | 0.0056 | 0.0052 µM and 0.0056 µM | – | –
CCN(CC)CC1CCCCN1CC(=O)N1c2ccccc2C(=O)Nc2cccnc21 (configuration not stated) [(AF-DX 116) 11-[2-(2-Diethylaminomethyl-piperidin-1-yl)-acetyl]-5,11-dihydro-benzo[e]pyrido[3,2-b][1,4]diazepin-6-one] | 1.6 | 1.7 µM and 1.5 µM | 4.8 | 0.074
COc1ccccc1CNCCCCCCNCCCCCCCCNCCCCCCNCc1ccccc1OC [METHOCTRAMINE] | 0.16 | 0.13 µM and 0.1 µM | 3 | –
C[C@H]1OC(=O)C2C[C@H]3CCCC[C@@H]3[C@@H](/C=C/[C@@H]3CCC[C@H](C)N3C)C21 (some centres not stated) [HIMBACINE] | 0.06 | 0.046 µM and 0.05 µM | 0.9 | 0.015
O[Si](CCCN1CCCCC1)(c1ccccc1)C1CCCCC1 (configuration not stated) [HHSiD] | 0.1 | 0.093 µM and 0.11 µM | 0.05 | –
CN1CCN(CC(=O)N2c3ccccc3C(=O)Nc3cccnc32)CC1 [11-[(4-methylpiperazin-1-yl)acetyl]-5,11-dihydro-6H-pyrido[2,3-b][1,4]benzodiazepin-6-one] | 0.4 | – | – | –
